Experimental findings from patent US8598208B2, “Pyridine derivatives as S1P1/EDG1 receptor modulators” (Actelion Pharmaceuticals Ltd., priority 2007, dated 2013) are described below.

The target of one test is recombinant human S1P1 receptor (Homo sapiens, UniProt P21453). Briefly: GTPγS assay to determine EC50 values. Type of test: biochemical. The following applies: membrane preparations of CHO cells expressing recombinant human S1P1 receptor; pH 7.4; read-out: EC50 (agonistic activity, 35S-GTPγS binding). As to the method: GTPγS binding assays are performed in 96 well microtiter plates (Nunc, 442587) in a final volume of 200 μl, using membrane preparations of CHO cells expressing recombinant human S1P1 receptor. Assay conditions are 20 mM Hepes (Fluka, 54461), 100 mM NaCl (Fluka, 71378), 5 mM MgCl2 (Fluka, 63064), 0.1% BSA (Calbiochem, 126609), 1 μM GDP (Sigma, G-7127), 2.5% DMSO (Fluka, 41644), […] ^35S-GTPγS (Amersham Biosciences, SJ1320). The pH is 7.4. Test compounds are dissolved and diluted in 100% DMSO and pre-incubated at room temperature for 30 min in 150 μl of the above assay buffer, in the absence of ^35S-GTPγS. After addition of 50 μl of ^35S-GTPγS, the assay is incubated for 1 h at rt. The assay is terminated by transfer of the reaction mixture to a Multiscreen plate (Millipore, MAHFC1H60) using a cell harvester from Packard Biosciences, and the plates are washed with ice-cold 10 mM Na2HPO4/NaH2PO4 (70%/30%), dried, sealed at the bottom and, after addition of 25 μl MicroScint20 (Packard Biosciences, order#6013621), sealed on the top. Membrane-bound ^35S-GTPγS is measured with a TopCount from Packard Biosciences.
recombinant human S1P1 receptor, sequence (P21453 whole entry): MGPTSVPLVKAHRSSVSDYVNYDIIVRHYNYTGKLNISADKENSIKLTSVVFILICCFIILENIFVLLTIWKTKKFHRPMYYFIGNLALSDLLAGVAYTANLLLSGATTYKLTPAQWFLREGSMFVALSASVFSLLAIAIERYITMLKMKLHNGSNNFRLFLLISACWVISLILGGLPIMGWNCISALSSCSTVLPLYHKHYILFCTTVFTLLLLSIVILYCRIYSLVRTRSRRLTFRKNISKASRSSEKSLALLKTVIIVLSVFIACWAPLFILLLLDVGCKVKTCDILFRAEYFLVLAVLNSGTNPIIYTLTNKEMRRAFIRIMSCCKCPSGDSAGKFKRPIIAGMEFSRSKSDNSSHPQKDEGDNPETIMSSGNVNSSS
EC50 is the concentration of agonist inducing 50% of the maximal specific ^35S-GTPγS binding. Specific binding is determined by subtracting non-specific binding from maximal binding. Maximal binding is the amount of cpm bound to the Multiscreen plate in the presence of 10 μM of S1P. Non-specific binding is the amount of binding in the absence of an agonist in the assay.
(In general: Binding of GTPγS marks nucleotide exchange on a G protein.)
As for `CCc1cc(-c2nc(-c3cc(C)nc(C)c3)no2)cc(CC(C)C)n1` [Example 61], the EC50 was 1 nM. For the compound `Cc1cc(-c2noc(-c3cc(C)nc(CC(C)C)c3)n2)cc(C)n1` [Example 8], the EC50 stood at 0.4 nM. In the case of `Cc1cc(-c2nc(-c3cnc(NC(C)C)c(C)c3)no2)cc(CC(C)C)n1` [Example 39], the EC50 was 6.1 nM. For the compound `CCNc1cc(-c2nc(-c3cc(C)nc(CC)c3)no2)cc(C)n1` [Example 29], the EC50 was 0.9 nM. Consider `CCc1cc(-c2noc(-c3cc(C)nc(CC)c3)n2)cc(C)n1` [Example 2], for which the EC50 came to 5.2 nM.

For `CCc1cc(-c2noc(-c3cc(OC)nc(C4CCCC4)c3)n2)cc(C)n1` [Example 117], the concentration giving a half-maximal response (EC50) is 2.1 nM. Same read-out and setting: the same measure for `CCCc1cc(-c2nc(-c3cc(C)nc(C)c3)no2)cc(C)n1` [Example 6]: 2.4 nM; for `Cc1cc(-c2noc(-c3cc(C)nc(C4CCCC4)c3)n2)cc(C)n1` [Example 66]: 0.3 nM. In the case of `CCc1cc(-c2noc(-c3cc(CC)nc(CC(C)C)c3)n2)cc(C)n1` [Example 62], the EC50 was 1.4 nM.

`CCC(CC)c1cc(-c2nc(-c3cc(C)nc(C)c3)no2)cc(C)n1` [Example 65]: the EC50 came out at 0.5 nM. In the case of `CCc1cc(-c2noc(-c3cc(C)nc(C(CC)CC)c3)n2)cc(C)n1` [Example 45], the EC50 was 0.4 nM.

The next test relates to circulating lymphocytes. The test can be described thus: Assessment of in vivo efficacy: circulating lymphocytes after oral administration. The arrangement: species or system normotensive male Wistar rats. Particulars: 6 h after oral administration of 3 mg/kg, male Wistar rats, compared to vehicle group; mean ± SEM. As to the method:
The efficacy of the compounds of Formula (I) is assessed by measuring the circulating lymphocytes after oral administration of 3 to 30 mg/kg of a compound of Formula (I) to normotensive male Wistar rats. The animals are housed in climate-controlled conditions with a 12 h-light/dark cycle, and have free access to normal rat chow and drinking water. Blood is collected before and 3, 6 and 24 h after drug administration. Full blood is subjected to hematology using Advia Hematology system (Bayer Diagnostics, Zürich, Switzerland).
All data are presented as mean±SEM. Statistical analyses are performed by analysis of variance (ANOVA) using Statistica (StatSoft) and the Student-Newman-Keuls procedure for multiple comparisons. The null hypothesis is rejected when p≦0.05.
As for `CCCc1cc(-c2nc(-c3cc(C)nc(C)c3)no2)cc(C)n1` [Example 6], the Lymphocyte counts was −68% ± 3%^.

One may read the EC50 as the concentration at which the effect is half-maximal.
